Columns and labels:
Test in all cases: relative viability (nuclei count vs DMSO), 5 days (fraction); higher = more cells survive
[1] = compound: C#Cc1cccc(Nc2ncnc3cc(OC)c(OCCCCCCC(=O)NO)cc23)c1 [CUDC-101] + NC(=O)Nc1cc(-c2cccc(F)c2)sc1C(=O)N[C@H]1CCCNC1 [AZD7762] (partner 0.2 µM)
How it was run: (§1)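 Nuclei were stained with Hoechst during a one-step fixation (final 0.05% Triton X-100, 1% formaldehyde, 1 ug/ml Hoechst) carried out 5 days after dosing, then counted on 4× images. The cells, lung cancer lines in 1536-well plates, had been dosed by pin tool the day after seeding with one drug alone or a fixed anchor-drug dose plus five library-drug doses (not always all listed) in √10 steps. Relative viability is the nuclei count in treated wells divided by that in vehicle wells, and each value is the median of duplicate plates.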

[2] = compound: C1=CC=C2C(=C1)N=C(S2)C(C#N)C3=NC(=NC=C3)NCCC4=CN=CC=C4 + COc1cccc2cc(-c3nc([C@H]4CC[C@H](C(=O)O)CC4)n4ncnc(N)c34)[nH]c12 [OSI-027] (partner 0.5 µM)
How it was run: as §1

[3] = compound: COc1cc(N2CCC(N3CCN(C)CC3)CC2)ccc1Nc1ncc(Cl)c(Nc2ccccc2S(=O)(=O)C(C)C)n1 [NVP-TAE684] + Cc1nc(NC(=O)N2CCC[C@H]2C(N)=O)sc1-c1ccnc(C(C)(C)C(F)(F)F)c1 [Alpelisib] (partner 2 µM)
How it was run: as §1

[4] = compound: COc1cc2/c(=N/c3ccc(Br)cc3F)nc[nH]c2cc1OCC1CCN(C)CC1 [Vandetanib] + Cc1nc(Nc2ncc(C(=O)Nc3c(C)cccc3Cl)s2)cc(N2CCN(CCO)CC2)n1 [Dasatinib] (partner 0.075 µM)
How it was run: as §1

Cell Line | relative viability ([1]; first compound 0.01 µM) | relative viability ([1]; first compound 0.03162 µM) | relative viability ([1]; first compound 0.1 µM) | relative viability ([1]; first compound 0.3162 µM) | relative viability ([1]; first compound 1 µM) | relative viability ([2]; first compound 0.005 µM) | relative viability ([2]; first compound 0.05 µM) | relative viability ([2]; first compound 0.1581 µM) | relative viability ([2]; first compound 0.5 µM) | relative viability ([3]; first compound 0.2 µM) | relative viability ([3]; first compound 0.6325 µM) | relative viability ([3]; first compound 2 µM) | relative viability ([2]; first compound 0.01581 µM) | relative viability ([4]; first compound 0.02 µM) | relative viability ([4]; first compound 0.06325 µM) | relative viability ([4]; first compound 0.2 µM) | relative viability ([4]; first compound 0.6325 µM) | relative viability ([4]; first compound 2 µM)
HCC-44 | 1.04 | 1.01 | 1.05 | 0.981 | 1.06 | 0.421 | 0.566 | 0.531 | 0.47 | 0.835 | 0.784 | 0.313 | – | – | – | – | – | –
SK-LU-1 | – | – | – | – | – | 0.278 | 0.349 | 0.345 | 0.297 | 1.1 | 0.863 | 0.4 | 0.374 | 0.195 | 0.151 | 0.184 | 0.18 | 0.173
A549 | – | – | – | – | – | – | – | – | – | 0.823 | 0.58 | 0.253 | – | – | – | – | – | –
SW 900 | 0.57 | 0.476 | 0.568 | 0.716 | 0.555 | 0.48 | 0.506 | 0.763 | 0.424 | – | – | – | 0.448 | 0.445 | 0.57 | 0.537 | 0.641 | 0.409
COR-L 105 | – | – | – | – | – | 0.576 | 0.71 | 0.768 | 0.547 | 0.852 | 0.926 | 0.538 | 0.556 | 0.337 | 0.322 | 0.271 | 0.281 | 0.184
COR-L23 | – | – | – | – | – | 0.369 | 0.716 | 0.985 | 0.511 | 0.762 | 0.517 | 0.237 | 0.839 | 0.485 | 0.438 | 0.462 | 0.446 | 0.564
NCI-H1299 | – | – | – | – | – | – | – | – | – | 0.974 | 1.1 | 0.992 | – | – | – | – | – | –
NCI-H2009 | – | – | – | – | – | 0.649 | 0.564 | 0.726 | 0.603 | 1.11 | 1.14 | 0.927 | 0.547 | 0.326 | 0.241 | 0.329 | 0.309 | 0.349
NCI-H1650 | – | – | – | – | – | 0.557 | 0.611 | 0.689 | 0.354 | – | – | – | 0.56 | 0.322 | 0.275 | 0.322 | 0.292 | 0.305
IA-LM | – | – | – | – | – | – | – | – | – | 0.588 | 0.55 | 0.431 | – | – | – | – | – | –
NCI-H520 | – | – | – | – | – | 0.199 | 0.222 | 0.32 | 0.272 | 1.17 | 1.16 | 0.354 | 0.261 | 0.139 | 0.228 | 0.218 | 0.191 | 0.225
NCI-H2342 | 0.507 | 0.459 | 0.51 | 0.407 | 0.353 | 0.532 | 0.569 | 0.671 | 0.578 | – | – | – | 0.64 | 0.339 | 0.335 | 0.321 | 0.315 | 0.361
NCI-H522 | 0.932 | 0.753 | 0.791 | 0.75 | 0.689 | 0.674 | 0.717 | 0.713 | 0.685 | – | – | – | 0.681 | 0.849 | 0.724 | 0.885 | 0.808 | 0.821
NCI-H661 | – | – | – | – | – | 0.638 | 0.689 | 0.748 | 0.682 | 0.808 | – | 0.596 | 0.687 | 0.988 | 0.856 | 0.837 | 0.803 | 0.874
Calu-6 | – | – | – | – | – | – | – | – | – | 0.854 | 0.912 | 0.517 | – | – | – | – | – | –
NCI-H2228 | – | – | – | – | – | 0.404 | 0.561 | 0.578 | 0.492 | 0.381 | 0.255 | 0.153 | 0.556 | 0.464 | 0.478 | 0.503 | 0.463 | 0.481
NCI-H1703 | 0.141 | 0.117 | 0.11 | 0.116 | 0.125 | – | – | – | – | 0.401 | 0.334 | 0.21 | – | – | – | – | – | –
SW 1573 | – | – | – | – | – | 0.497 | – | 0.923 | 0.557 | 0.574 | 0.827 | 0.592 | 0.54 | 0.449 | 0.577 | 0.598 | 0.441 | 0.674
SK-MES-1 | – | – | – | – | – | 0.483 | 0.48 | 0.722 | 0.558 | 0.691 | 1 | 0.827 | 0.659 | 0.358 | 0.33 | 0.347 | 0.27 | 0.286
NCI-H1623 | – | – | – | – | – | 0.488 | 0.397 | 0.553 | 0.345 | – | – | – | 0.386 | 0.489 | 0.576 | 0.502 | 0.507 | 0.404
NCI-H2023 | – | – | – | – | – | 0.285 | 0.31 | 0.355 | 0.275 | 0.589 | 0.537 | 0.308 | 0.418 | 0.584 | 0.563 | 0.514 | 0.542 | 0.59
ChaGo-K-1 | 0.92 | 0.913 | 0.937 | 0.841 | 0.732 | – | 0.616 | 0.587 | 0.452 | – | – | – | 0.491 | 0.581 | 0.63 | 0.269 | 0.584 | 0.607
NCI-H1563 | – | – | – | – | – | 0.643 | 0.705 | 0.838 | 0.618 | 0.802 | 0.828 | 0.903 | 0.744 | 0.44 | 0.443 | 0.462 | 0.472 | 0.454
EBC-1 | – | – | – | – | – | – | – | – | – | 0.772 | 0.824 | 0.559 | – | – | – | – | – | –
NCI-H1648 | 0.846 | 0.566 | 0.646 | 0.45 | 0.361 | 0.238 | 0.289 | 0.26 | 0.28 | – | – | – | 0.239 | – | – | – | – | –
